Calls of active or inactive are those of the source. No cut-off for these calls is given here.
How the values were obtained:
[1] = PROTAC activity at human BRD4 BD1/CRBN assessed as ubiquitination level by measuring unmodified protein by […]
[2] = target: T1, Protein cereblon/Chromatin remodeling regulator CECR2 (Homo sapiens) (UniProt Q9BXF3+Q96SW2); experiment: PROTAC activity at human CECR2/CRBN assessed as degradation of protein by measuring unmodified protein at 10 uM by fluorescence-coupled CRBN-based ubiquitination assay
[3] = target: T2, Protein cereblon/Nucleosome-remodeling factor subunit BPTF (Homo sapiens, UniProt Q12830+Q96SW2); experiment: PROTAC activity at human BPTF/CRBN assessed as ubiquitination level by measuring unmodified protein by fluorescence-coupled CRBN-based ubiquitination assay
Target sequence in this assay (Q96SW2 whole entry, looked up, other chains not shown): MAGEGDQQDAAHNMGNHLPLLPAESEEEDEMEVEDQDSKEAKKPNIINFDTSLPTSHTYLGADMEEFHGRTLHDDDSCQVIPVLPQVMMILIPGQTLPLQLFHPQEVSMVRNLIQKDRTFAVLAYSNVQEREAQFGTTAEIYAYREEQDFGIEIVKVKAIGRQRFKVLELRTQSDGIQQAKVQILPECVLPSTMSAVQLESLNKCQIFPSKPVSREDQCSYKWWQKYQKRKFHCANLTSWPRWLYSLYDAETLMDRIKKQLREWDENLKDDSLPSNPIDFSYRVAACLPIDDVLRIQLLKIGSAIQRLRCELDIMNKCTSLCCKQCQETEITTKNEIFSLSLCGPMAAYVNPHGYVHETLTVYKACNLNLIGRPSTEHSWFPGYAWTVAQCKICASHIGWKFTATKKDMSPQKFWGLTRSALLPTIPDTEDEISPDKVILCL

[4] = target: T2, Protein cereblon/Nucleosome-remodeling factor subunit BPTF; experiment: PROTAC activity at human BPTF/CRBN in human MV4-11 cells assessed as degradation of protein at 5 uM measured after 24 hrs by immunoblotting analysis; type: cell-based
Target sequence in this assay (Q96SW2 whole entry, looked up, other chains not shown): as above

[5] = target: T2, Protein cereblon/Nucleosome-remodeling factor subunit BPTF; experiment: PROTAC activity at human BPTF/CRBN assessed as degradation of protein by measuring unmodified protein by fluorescence-coupled CRBN-based ubiquitination assay
Target sequence in this assay (Q96SW2 whole entry, other chains not shown): as the sequence (Q96SW2 whole entry, looked up, other chains not shown) above

[6] = target: T1, Protein cereblon/Chromatin remodeling regulator CECR2 (Homo sapiens); experiment: PROTAC activity at human CECR2/CRBN assessed as degradation of protein by measuring unmodified protein at 20 uM by fluorescence-coupled CRBN-based ubiquitination assay
[7] = Inhibition of human BPTF BRD by HTRF assay
[8] = Binding affinity to human BPTF BRD assessed as dissociation constant
[9] = target: T2, Protein cereblon/Nucleosome-remodeling factor subunit BPTF; experiment: PROTAC activity at human BPTF/CRBN in human MV4-11 cells assessed as degradation of protein measured after 24 hrs by immunoblotting analysis; type: cell-based
Target sequence in this assay (Q96SW2 whole entry, looked up, other chains not shown): as above

[10] = target: T1, Protein cereblon/Chromatin remodeling regulator CECR2 (Homo sapiens); experiment: PROTAC activity at human CECR2/CRBN in human MV4-11 cells assessed as degradation of protein at 20 uM measured after 24 hrs by immunoblotting analysis; type: cell-based
[11] = target: Protein cereblon/Bromodomain-containing protein 9 (Homo sapiens) (UniProt Q9H8M2+Q96SW2); experiment: PROTAC activity at human BRD9/CRBN in human MV4-11 cells assessed as degradation of protein at 20 uM measured after 24 hrs by immunoblotting analysis; type: cell-based
[12] = target: Protein cereblon/Histone acetyltransferase KAT2B (Homo sapiens) (UniProt Q92831+Q96SW2); experiment: PROTAC activity at human PCAF/CRBN in human MV4-11 cells assessed as degradation of protein at 20 uM measured after 24 hrs by immunoblotting analysis; type: cell-based
MV4-11 = experiment: Antiproliferative activity against human MV4-11 cells assessed as cell viability measured after 6 days by CellTiter-Glo kit; type: functional, cell-based; details: MV4-11, 144 h
[13] = target: T2, Protein cereblon/Nucleosome-remodeling factor subunit BPTF; experiment: PROTAC activity at human BPTF/CRBN in human MV4-11 cells assessed as degradation of protein pretreated with MLN4924 for 12hrs followed by measured after 24 hrs of compound treatment by immunoblotting analysis; type: cell-based
Target sequence in this assay (Q96SW2 whole entry, looked up, other chains not shown): as above

[14] = target: T2, Protein cereblon/Nucleosome-remodeling factor subunit BPTF; experiment: PROTAC activity at human BPTF/CRBN in human MV4-11 cells assessed as degradation of protein measured after 24 hrs in presence of pomalidomide by immunoblotting analysis; type: cell-based
Target sequence in this assay (Q96SW2 whole entry, looked up, other chains not shown): as above

[15] = target: T2, Protein cereblon/Nucleosome-remodeling factor subunit BPTF; experiment: PROTAC activity at human BPTF/CRBN assessed as ubiquitination level by measuring unmodified protein in presence of pomalidomide by fluorescence-coupled CRBN-based ubiquitination assay
Target sequence in this assay (Q96SW2 whole entry, looked up, other chains not shown): as above

T1 sequence (Q96SW2 whole entry, looked up): as the sequence (Q96SW2 whole entry, looked up, other chains not shown) above
T1 sequence (Q9BXF3 whole entry, looked up): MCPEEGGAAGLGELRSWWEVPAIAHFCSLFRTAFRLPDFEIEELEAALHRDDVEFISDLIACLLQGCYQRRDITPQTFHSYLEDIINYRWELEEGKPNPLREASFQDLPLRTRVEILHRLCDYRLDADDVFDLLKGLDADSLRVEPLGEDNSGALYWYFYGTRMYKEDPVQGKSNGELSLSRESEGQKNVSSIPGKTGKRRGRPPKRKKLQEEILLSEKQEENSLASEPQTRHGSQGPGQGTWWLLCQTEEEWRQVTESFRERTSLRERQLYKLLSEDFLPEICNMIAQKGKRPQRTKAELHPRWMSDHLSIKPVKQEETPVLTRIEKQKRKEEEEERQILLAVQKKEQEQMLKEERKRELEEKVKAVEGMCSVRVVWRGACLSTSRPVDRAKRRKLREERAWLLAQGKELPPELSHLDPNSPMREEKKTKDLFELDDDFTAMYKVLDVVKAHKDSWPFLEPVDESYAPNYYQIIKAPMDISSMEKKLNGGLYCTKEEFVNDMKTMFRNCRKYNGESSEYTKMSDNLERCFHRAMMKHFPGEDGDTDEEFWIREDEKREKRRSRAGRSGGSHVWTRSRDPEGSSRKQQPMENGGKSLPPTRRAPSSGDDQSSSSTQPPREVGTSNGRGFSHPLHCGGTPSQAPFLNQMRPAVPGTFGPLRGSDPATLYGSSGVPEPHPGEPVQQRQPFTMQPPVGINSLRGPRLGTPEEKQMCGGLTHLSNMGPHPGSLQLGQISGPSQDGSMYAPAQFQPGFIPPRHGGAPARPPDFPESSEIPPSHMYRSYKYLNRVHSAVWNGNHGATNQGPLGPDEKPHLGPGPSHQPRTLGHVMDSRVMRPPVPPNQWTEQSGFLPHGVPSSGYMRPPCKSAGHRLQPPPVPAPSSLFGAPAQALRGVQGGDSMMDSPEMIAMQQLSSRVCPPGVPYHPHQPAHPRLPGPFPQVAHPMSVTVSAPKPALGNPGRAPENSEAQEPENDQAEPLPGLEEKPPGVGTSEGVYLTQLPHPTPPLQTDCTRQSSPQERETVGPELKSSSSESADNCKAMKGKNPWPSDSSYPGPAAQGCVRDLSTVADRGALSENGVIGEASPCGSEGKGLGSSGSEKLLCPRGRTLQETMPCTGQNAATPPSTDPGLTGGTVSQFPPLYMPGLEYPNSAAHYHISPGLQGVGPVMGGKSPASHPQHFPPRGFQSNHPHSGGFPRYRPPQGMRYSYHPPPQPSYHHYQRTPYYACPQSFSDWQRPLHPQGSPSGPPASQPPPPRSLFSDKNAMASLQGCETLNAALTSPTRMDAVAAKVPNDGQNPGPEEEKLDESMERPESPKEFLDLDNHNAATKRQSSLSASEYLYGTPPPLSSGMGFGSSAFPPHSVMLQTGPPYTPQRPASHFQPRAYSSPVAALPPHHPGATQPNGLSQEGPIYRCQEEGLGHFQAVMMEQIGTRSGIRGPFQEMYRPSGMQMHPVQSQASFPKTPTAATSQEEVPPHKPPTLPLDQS
Protein cereblon/Bromodomain-containing protein 9 (Homo sapiens), sequence (Q96SW2 whole entry, looked up): as the sequence (Q96SW2 whole entry, looked up, other chains not shown) above
Protein cereblon/Bromodomain-containing protein 9 (Homo sapiens), sequence (Q9H8M2 whole entry, looked up): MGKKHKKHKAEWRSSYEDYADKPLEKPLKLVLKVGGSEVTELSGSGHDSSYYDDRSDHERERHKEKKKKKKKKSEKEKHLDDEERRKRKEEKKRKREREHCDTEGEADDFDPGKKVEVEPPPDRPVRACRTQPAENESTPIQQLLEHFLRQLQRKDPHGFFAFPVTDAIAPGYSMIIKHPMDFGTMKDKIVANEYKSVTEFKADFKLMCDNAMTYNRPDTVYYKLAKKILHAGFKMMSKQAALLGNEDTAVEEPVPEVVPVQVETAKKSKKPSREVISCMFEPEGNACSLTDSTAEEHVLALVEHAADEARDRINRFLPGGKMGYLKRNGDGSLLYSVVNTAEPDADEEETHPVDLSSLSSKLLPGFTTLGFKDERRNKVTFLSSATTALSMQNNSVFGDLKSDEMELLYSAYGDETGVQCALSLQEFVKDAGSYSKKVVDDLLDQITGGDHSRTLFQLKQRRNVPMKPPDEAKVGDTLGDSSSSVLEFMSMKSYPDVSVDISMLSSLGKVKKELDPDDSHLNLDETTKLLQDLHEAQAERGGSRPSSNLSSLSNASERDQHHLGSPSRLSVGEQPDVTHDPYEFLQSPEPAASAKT
Protein cereblon/Histone acetyltransferase KAT2B (Homo sapiens), sequence (Q92831 whole entry, looked up): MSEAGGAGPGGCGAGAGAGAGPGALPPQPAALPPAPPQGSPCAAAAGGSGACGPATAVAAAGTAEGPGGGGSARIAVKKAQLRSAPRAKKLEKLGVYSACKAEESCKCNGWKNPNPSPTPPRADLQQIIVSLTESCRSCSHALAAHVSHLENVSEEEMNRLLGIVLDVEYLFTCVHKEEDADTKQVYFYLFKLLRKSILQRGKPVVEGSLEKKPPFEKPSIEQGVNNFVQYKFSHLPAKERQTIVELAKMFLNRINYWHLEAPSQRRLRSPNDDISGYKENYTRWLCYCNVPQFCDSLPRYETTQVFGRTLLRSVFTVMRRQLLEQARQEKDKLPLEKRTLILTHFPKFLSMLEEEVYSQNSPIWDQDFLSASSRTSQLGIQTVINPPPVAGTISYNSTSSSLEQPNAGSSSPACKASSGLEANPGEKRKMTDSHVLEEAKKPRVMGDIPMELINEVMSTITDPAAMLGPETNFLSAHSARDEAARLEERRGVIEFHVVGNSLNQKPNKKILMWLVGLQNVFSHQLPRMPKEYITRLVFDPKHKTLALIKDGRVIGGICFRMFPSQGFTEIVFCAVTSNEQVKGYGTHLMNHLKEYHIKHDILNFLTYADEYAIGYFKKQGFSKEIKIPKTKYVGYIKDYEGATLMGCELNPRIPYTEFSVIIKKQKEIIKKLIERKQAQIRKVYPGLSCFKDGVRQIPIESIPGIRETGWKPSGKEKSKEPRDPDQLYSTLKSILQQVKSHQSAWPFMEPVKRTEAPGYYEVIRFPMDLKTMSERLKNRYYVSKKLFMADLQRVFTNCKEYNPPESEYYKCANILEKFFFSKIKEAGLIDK
Protein cereblon/Histone acetyltransferase KAT2B (Homo sapiens), sequence (Q96SW2 whole entry, looked up): as the sequence (Q96SW2 whole entry, looked up, other chains not shown) above

`Cc1sc2c(c1C)C(c1ccc(Cl)cc1)=N[C@@H](CC(=O)Nc1ccc(OCCOCCOCCOCCNc3cccc4c3C(=O)N(C3CCC(=O)NC3=O)C4=O)cc1)c1nnc(C)n1-2` (stereo partly specified) gave an IC50 [1] of 1250 nM.
In the case of `Cc1sc2c(c1C)C(c1ccc(Cl)cc1)=N[C@@H](CC(=O)NCCNc1cccc3c1C(=O)N(C1CCC(=O)NC1=O)C3=O)c1nnc(C)n1-2` (stereo partly specified), the IC50 [1] is reported as 280 nM.
`COC(=O)C[C@@H]1N=C(c2ccc(Cl)cc2)c2c(sc(C(=O)NCCCCCCCCNC(=O)COc3cccc4c3C(=O)N(C3CCC(=O)NC3=O)C4=O)c2C)-n2c(C)nnc21` (stereo partly specified) showed an IC50 [1] of 1150 nM.
In the case of `CCCNc1cc(-c2ccc(OCCCN3CCN(C(=O)CCCCCOc4cccc5c4C(=O)N(C4CCC(=O)NC4=O)C5=O)CC3)c(C#N)c2)nc(S(C)(=O)=O)n1` (stereo unspecified), the Activity [2] is reported as “inactive”.
In the case of `CCCNc1cc(-c2ccc(OCCCN3CCN(C(=O)COc4cccc5c4C(=O)N(C4CCC(=O)N(C)C4=O)C5=O)CC3)c(C#N)c2)nc(S(C)(=O)=O)n1` (stereo unspecified), the Activity [3] is reported as “inactive” and the Activity [4] is reported as “inactive”.
With `CCCNc1cc(-c2ccc(OCCCN3CCN(C(=O)C4CN(c5cccc6c5C(=O)N(C5CCC(=O)NC5=O)C6=O)C4)CC3)c(C#N)c2)nc(S(C)(=O)=O)n1` (stereo unspecified) the Activity [3] was “Active”, the DC50 [5] was 44.6 nM and the Activity [6] was “inactive”.
With `CCCNc1cc(-c2ccc(OCCCN3CCN(C(=O)C4CCN(c5cccc6c5C(=O)N(C5CCC(=O)NC5=O)C6=O)CC4)CC3)c(C#N)c2)nc(S(C)(=O)=O)n1` (stereo unspecified) the Activity [3] was “Active” and the Activity [6] was “Active”.
With `CCCNc1cc(-c2ccc(OCCCN3CCN(C(=O)COc4cccc5c4C(=O)N(C4CCC(=O)NC4=O)C5=O)CC3)c(C#N)c2)nc(S(C)(=O)=O)n1` (stereo unspecified) the IC50 [1] was 680 nM, the Activity [3] was “Active” and the DC50 [5] was 35.1 nM. The Activity [6] was “inactive”, the IC50 [7] was 150 nM and the Kd [8] was 310 nM. The Activity [9] was “Dose-dependent-effect”, the Activity [10] was “inactive” and the Activity [11] was “inactive”. The Activity [12] was “inactive”, the IC50 (MV4-11) was 2710 nM and the Activity [13] was “inactive”. For the same compound, the Activity [14] was “inactive” and the Activity [15] was “inactive”.
In the case of `CCCNc1cc(-c2ccc(OCCCN3CCN(C(=O)CCCCNc4cccc5c4C(=O)N(C4CCC(=O)NC4=O)C5=O)CC3)c(C#N)c2)nc(S(C)(=O)=O)n1` (stereo unspecified), the Activity [2] is reported as “inactive”.

— ChEMBL document CHEMBL6177990, “Fluorescence-Coupled Ubiquitination Assay as a High-Throughput Screening Strategy for Novel Cereblon Degraders” (J Med Chem, 2025)
